Laboratory results reported in article PMC9506420, “Biological Evaluation of 3-Azaspiro[Bicyclo[3.1.0]Hexane-2,5′-Pyrimidines] as Potential Antitumor Agents” (International Journal of Molecular Sciences, 2022).
Where two headings read alike, the source gives them in different places.

Experiments:
[1] = tested on: human erythroleukemia (K562) cell line; assay: MTS antiproliferative (cytotoxicity) assay, K562; format: cell-based; conditions: for IC50: Homo sapiens; for SI (selectivity index), K562: Vero as reference cell line
Description: (§1) The cytotoxicity of synthesized 3-azaspiro[bicyclo[3.1.0]hexane-2,5′-pyrimidines] 4 against human erythroleukemia (K562), cervical carcinoma (HeLa), and T lymphocyte (Jurkat), as well as mouse colon carcinoma (CT26) and African green monkey kidney epithelial (Vero) cell lines as reference, was evaluated in vitro by the standard MTS assay for 24 and 72 h.
(§2) All the cell lines (human cervical carcinoma (HeLa), erythroleukemia (K-562), and T lymphocyte (Jurkat) as well as mouse colon carcinoma (CT26) and African green monkey kidney epithelial (Vero)) were obtained from the cell repository “Vertebrate cell culture collection” (supported by the Ministry of Science and Higher Education of the Russian Federation, agreement №075-15-2021-683, Institute of Cytology, Russian Academy of Sciences, Saint Petersburg, Russia). HeLa, Jurkat, and Vero cells were cultured in DMEM (HyClone, South Logan, UT, USA) supplemented with 10% (v/v) fetal bovine serum (Hyclone, GE Healthcare Life Sciences, Logan, UT, USA), and gentamicin (Sigma-Aldrich, St. Louis, MO, USA) at 37 °C in a humidified atmosphere with 5% CO2. K-562 and CT26 cells were grown at RPMI medium (Hyclone, GE Healthcare Life Sciences, Logan, UT, USA), with the same supplements and conditions.
(§3) To evaluate the in vitro toxicity of compounds synthesized, cells were seeded into 96-well plates at a density of 5 × 10^3 cells per well. On the next day, tested compounds were added to the wells at concentrations ranging from […], followed by incubation for 1 and 3 days. Cell proliferation was determined by adding 20 μL of MTS reagent (BioVision, Milpitas, CA, USA) stock solution per well. Each plate was incubated for 2 h at 37 °C in a humidified, 5% CO2 atmosphere. The plates were then read at 495 nm using plate spectrophotometer (Multiskan GO, Thermo Fisher Scientific, Waltham, MA, USA). All samples were measured in triplicates.

[2] = tested on: human cervical carcinoma (HeLa) cell line; assay: MTS antiproliferative (cytotoxicity) assay, HeLa; format: cell-based; conditions: HeLa; for SI (selectivity index), HeLa: Vero as reference cell line; for IC50: Homo sapiens
Description: as §1, §2, §3

[3] = tested on: mouse colon carcinoma (CT26) cell line; assay: MTS antiproliferative (cytotoxicity) assay, CT26; format: cell-based; conditions: for SI (selectivity index), CT26: Vero as reference cell line; for IC50: Mus musculus
Description: as §1, §2, §3

[4] = tested on: human T lymphocyte (Jurkat) cell line; assay: MTS antiproliferative (cytotoxicity) assay, Jurkat; format: cell-based; conditions: for IC50: Homo sapiens, MTS; for SI (selectivity index), Jurkat: Vero as reference cell line
Description: The cytotoxicity of synthesized 3-azaspiro[bicyclo[3.1.0]hexane-2,5′-pyrimidines] 4 against human erythroleukemia (K562), cervical carcinoma (HeLa), and T lymphocyte (Jurkat), as well as mouse colon carcinoma (CT26) and African green monkey kidney epithelial (Vero) cell lines as reference, was evaluated in vitro by the standard MTS assay for 24 and 72 h. The results are presented in Figure 1, Figure 2, Figure 3, Figure 4 and Figure 5 (data on all, tested on K562, HeLa, and CT26 cell lines’ compounds, are given at SI, Figures S1–S3). […] Replacement of the phenyl group by either the carboxymethyl or N-isopropylcarbamoyl group has led to a significant decrease in the activity of spiro-fused cycloadducts comprising azabicyclo[3.1.0]hexane and alloxane moieties.
as §2, §3

[5] = tested on: African green monkey kidney epithelial (Vero) cell line; assay: MTS antiproliferative (cytotoxicity) assay, Vero (reference); format: cell-based; conditions: Chlorocebus sabaeus, Vero
Description: as §1, §2, §3

CT26 cells [6] = assay: Annexin V-FITC/DAPI cell death analysis, CT26; format: cell-based, mouse; conditions: CT26, 10 μg/mL, 72 h; for Necrotic Cells, %: control 0.0 ± 0.0; for Late Apoptotic Cells, %: control 0.9 ± 0.4; for Early Apoptotic Cells, %: control 10.5 ± 0.7; for Live Cells, %: control 88.5 ± 1.1
Description: The results of cell death detection after the exposure of the HeLa and CT26 cell lines to spiro-fused cycloadducts 4c–i at a dose of 10 μg/mL for 72 h, using Annexin V-FITC/DAPI staining, are shown in Figure 6 and Figure 7, respectively.
Cells were seeded in 24-well plates, 5 × 10^4 cells per well. After 24 h incubation, cells were treated with compounds 4c–i for 72 h. Then, cells were washed, harvested by trypsinisation, stained with Annexin V-FITC ([…]) and DAPI (Thermo Fisher Scientific, Waltham, MA, USA), in accordance with the protocol of the manufacturer, and analyzed by flow cytometry. The proapoptotic effect of azaspiro[bicyclo[3.1.0]hexane-2,5′-pyrimidines] 4c–i was evaluated by an Annexin V-FITC/DAPI (AV/DAPI) dual-staining assay to examine the occurrence of phosphatidylserine externalization, which facilitated the detection of live cells (lower-left quadrant; AV−/DAPI−), early apoptotic cells (upper-left quadrant; AV+/DAPI−), late apoptotic cells (upper-right quadrant; AV+/DAPI+), and necrotic cells (lower-right quadrant; AV−/DAPI+).

CT26 cells [7] = assay: Cell cycle distribution by flow cytometry (propidium iodide), CT26; format: cell-based, mouse; conditions: for SubG1 (%) / G2/M (%) / S (%) / G0/G1 (%): CT26, 10 μg/mL, 24 h; for SubG1 (%): control 3.6 ± 0.6; for G2/M (%): control 12.3 ± 0.9; for S (%): control 40.1 ± 1.5; for G0/G1 (%): control 44.0 ± 1.7; for cytostatic effect (cell cycle), CT26: CT26 cell line
Description: One of the indicators of the influence of biologically active products on the cells is the changed distribution of cells during different stages of the cell cycle. In this work, recently synthesized compounds were tested using flow cytometry for their effect on the distribution of cells in the cell cycle (G0/G1, G2/M, and S). Figure 8, Figure 9 and Figure 10 and Table 3 show the typical data after processing the results from three replicates of each experiment.
The distribution of HeLa and CT26 cells in the G0/G1-, S-, and G2/M-phases of the cell cycle was obtained by quantification of DNA content in propidium-iodide-stained cells using flow cytometry. Briefly, cells were seeded in 24-well plates at a density of 5 × 10^4 cells per well. After 24 h incubation, cells were exposed to 10 μg/mL of compounds 4c–i (the structure is provided in Scheme 1) for 24 h. The effects of compounds 4d, 4e, 4g, 4h were additionally tested at concentrations of 2 and 5 μg/mL. After incubation with drugs, the cells were detached by exposure to trypsin-EDTA for 5 min at 37 °C and then collected by pipetting. This was followed by treatment with 0.2 mg/mL saponin (Fluka, Waltham, MA, USA), 0.25 mg/mL RNase (Sigma-Aldrich, St. Louis, MO, USA), and 0.05 mg/mL propidium iodide (Invitrogen, Carlsbad, CA, USA). After washing, the samples were analyzed by standard flow cytometer (BD FACSCanto II, Becton Dickinson, San Jose, CA, USA). Then, 10,000 events were acquired for the sample. Data processing was performed using BD FACSDiva 9.0 software.

[8] = K562, 24 h, read-out: IC50, K562, 24 h
[9] = K562, 72 h, read-out: IC50, K562, 72 h
[10] = 24 h, read-out: IC50, HeLa, 24 h
[11] = 72 h, read-out: IC50, HeLa, 72 h
[12] = CT26, 24 h, read-out: IC50, CT26, 24 h
[13] = CT26, 72 h, read-out: IC50, CT26, 72 h
[14] = 24 h, read-out: IC50, Jurkat, 24 h
[15] = 72 h, read-out: IC50, Jurkat, 72 h
[16] = 24 h, read-out: IC50, Vero, 24 h
[17] = 72 h, read-out: IC50, Vero, 72 h

Compound | IC50 [1, 8] | IC50 [1, 9] | SI (selectivity index), K562 [1] | SI (selectivity index), HeLa [2] | IC50 [2, 10] | IC50 [2, 11] | SI (selectivity index), CT26 [3] | IC50 [3, 12] | IC50 [3, 13] | IC50 [4, 14] | IC50 [4, 15] | SI (selectivity index), Jurkat [4] | IC50 [5, 16] | IC50 [5, 17] | Necrotic Cells, % (CT26 cells [6]) | Late Apoptotic Cells, % (CT26 cells [6]) | Early Apoptotic Cells, % (CT26 cells [6]) | Live Cells, % (CT26 cells [6]) | SubG1 (%) (CT26 cells [7]) | G2/M (%) (CT26 cells [7]) | other results
CCCCCC[C@@H]1NC2(C(=O)NC(=O)NC2=O)[C@]2(c3ccccc3)[C@@H](c3ccccc3)[C@]12c1ccccc1 [Compound 4g] | 19 ± 2 µM | 10 ± 2 µM | 1.4 | 1.1 | 15 ± 2 µM | 13 ± 2 µM | 1.2 | 22 ± 2 µM | 12 ± 2 µM | 11 ± 2 µM | 8 ± 2 µM | 1.8 | 33 ± 6 µM | 14 ± 2 µM | 0.3 ± 0.1 % | 10.0 ± 0.3 % | 5.5 ± 0.1 % | 84.2 ± 0.3 % | 1.9 ± 0.5 % | 19.4 ± 4.7 % | S (%) (CT26 cells [7]): 17.0 ± 4.3 %; G0/G1 (%) (CT26 cells [7]): 61.7 ± 9.4 %
CSCC[C@@H]1NC2(C(=O)NC(=O)NC2=O)[C@]2(c3ccccc3)[C@@H](c3ccccc3)[C@]12c1ccccc1 [Compound 4h] | 20 ± 4 µM | 10 ± 2 µM | 2.2 | 1.0 | 28 ± 2 µM | 24 ± 6 µM | 1.4 | 22 ± 2 µM | 16 ± 2 µM | 18 ± 4 µM | 13 ± 4 µM | 1.7 | 31 ± 4 µM | 22 ± 4 µM | 0.9 ± 0.3 % | 24.0 ± 0.7 % | 4.8 ± 0.5 % | 70.3 ± 0.6 % | 10.8 ± 2.3 % | 18.9 ± 6.8 % | S (%) (CT26 cells [7]): 32.0 ± 0.6 %; G0/G1 (%) (CT26 cells [7]): 38.3 ± 7.9 %; cytostatic effect (cell cycle), CT26 (CT26 cells [7]): best effect
O=C1NC(=O)C2(N[C@@H](c3ccccc3)[C@@]3(c4ccccc4)[C@H](c4ccccc4)[C@@]23c2ccccc2)C(=O)N1 [Compound 4i] | 26 ± 4 µM | 8 ± 4 µM | 2.9 | 2.0 | 10 ± 2 µM | 12 ± 6 µM | 2.0 | 16 ± 2 µM | 12 ± 2 µM | 19 ± 2 µM | 14 ± 4 µM | 1.7 | 97 ± 12 µM | 23 ± 4 µM | 0.4 ± 0.1 % | 19.5 ± 0.5 % | 4.0 ± 0.1 % | 76.2 ± 0.3 % | 7.2 ± 2.2 % | 22.4 ± 1.7 % | S (%) (CT26 cells [7]): 37.2 ± 0.2 %; G0/G1 (%) (CT26 cells [7]): 33.2 ± 0.6 %; cytostatic effect (cell cycle), CT26 (CT26 cells [7]): best effect
